From patent US20260306460A1, “COMPOSITION FOR REMOVING AND INHIBITING SENESCENT CELLS, AND USES THEREOF” (LIFECEUTIX CO., LTD., priority 2023, published 2026)

Columns and labels:
[1] = system: non-senescent proliferating human cells; test: Effect on non-senescent (proliferating) human cells; format: cell-based; conditions: normally proliferating foreskin cells; 30 μM, 3 days
From the text: Based on the results of Example 10 of WO2023-085787 A1, compounds that induce the death of senescent cells through a mechanism similar to LX-112, unlike existing senescent cell removers such as ABT-263, were screened based on HMGN1. […] The following test compounds were synthesized by and purchased from Medchemexpress, Selleckchem, Cayman, Medkoo, Sigma, Molport, Enzo, TCI, Santa Cruz, REONSIMI, Abcam, Alfa Aesar, APExBIO, BOCSCI, Merck, Thermo Fisher Scientific, R&D Systems, ChemFaces, Aobious, etc. […] In cells in which senescence was not induced by treatment with the control group (DMSO), the amount of HMGN1 above the effective value (sensitivity: 35 pg/ml), analysis limit, was not detected in both untreated and treated conditions with the test compound. On the other hand, in cells where senescence was induced by treatment with doxorubicin, the amount of HMGN1 was measured at 80 to 90 pg/ml. […]
(§1) After 3 days, cell viability was measured using CellTiter-Glo Luminescent Cell Viability Assay (Promega) or light microscopy.
Using the same method as Example 11, compounds that induce senescent cell death through a mechanism similar to that of LX-112 (ethaselen (1,2-[bis(1,2-benzisoselenazolone-3 (2H)-ketone)]ethane)) were screened based on HMGN1 and others. […] On the other hand, in cells senescent with doxorubicin, an amount of HMGN1 of […] was measured. […]

[2] = system: proliferating foreskin cells; test: Survival of proliferating human cells treated with supernatant (secreted fluid) from death-induced cells, Example 13; format: cell-based; conditions: 3 days; for viability at 30 µM: Homo sapiens, 72 h
Procedure: as §1
After treating cells with the test compound at a high concentration that induces the death of most cells in both non-senescence-induced and senescence-induced cells, the cells were washed three times with PBS to remove the test compound, and replaced with fresh medium and cultured for an additional 3 hours at the time when the compound has entered into the cell but has not yet induced cell death (approximately 1 to 3 hours after compound treatment). During this additional culture, by checking with an optical microscope, etc., the medium supernatants containing secreted fluid from normally proliferating and senescent cells in which cell death was induced were obtained. The obtained medium supernatant was replaced with the medium of normally proliferating and senescent cells, respectively, and cell survival rate was measured after 3 days.

[3] = system: HMGN1 secreted from senescent A549 cells; test: HMGN1 secretion (ELISA) from senescent A549 cancer cells, Example 12; format: cell-based, human; conditions: senescent untreated = 100%; 30 μM; 90 μM for LX-305, 905, 1302, 1601, 1603, 2003, 2702, 2901, 3106; 270 μM for LX-1103, 2005, 2007;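 also: A549 cells made senescent by doxorubicin exposure, with DMSO-treated cells serving as the non-senescent control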
Procedure: (§3) Cells were treated with doxorubicin or control (DMSO) and cultured.

[4] = system: naturally aged C57BL6J mice; test: Geriatric depression and anxiety in aged mice, Example 21-8; format: in vivo, mouse; conditions: aged mice
From the text: The amount of senescent-associated secretory factor (SASP) in serum and tissues collected from mice of Examples 21-5 and 21-6 was reduced by treatment with LX-5701, LX-2101, or LX-2102. It was confirmed that removing senescent cells, which increase with aging in mice, and effectively reducing the amount of senescent-associated secretory factor (SASP) can improve symptoms of geriatric depression and anxiety.

[5] = system: obesity-induced aged C57BL6J mice; test: Anxiety, depression, lethargy (open field test) in obesity-aged mice, Example 23-4, Table 44; format: in vivo, mouse; conditions: obesity-aged mice
Procedure: 15-week-old male C57BL6J mice (The Jackson Laboratory) were induced to obesity by a high-fat diet using the same method as in Example 9-1 WO2023-085787 A1. After acclimation to the experimental environment for one week, the mice were randomly assigned to experimental and control groups. […] LX-3002 was mixed in distilled water with 4% DMSO, 30% PEG300, and 5% Tween80 and administered orally at a concentration of 10 mg/kg daily for 21 days. LX-5701 was mixed in PBS and administered orally at a concentration of 360 mg/kg daily for 21 days. LX-6807 was mixed in saline and administered intraperitoneally at a concentration of 1 mg/kg daily for 21 days. The control group received only the solution in the same volume. After the end of drug administration, the methods described in each example below were performed.
It was determined that anxiety and depression caused by obesity are not causally related to increased body weight, but rather are caused by the accumulation of senescent cells. Accordingly, an activity assessment (open field test) was performed using the same method as in Example 7-7 of WO2023-085787 A1 to analyze lethargy caused by anxiety and depression caused by obesity in mice. The table below quantitatively represents activity, a criterion for assessing lethargy due to anxiety and depression, under conditions in which aging was induced by obesity and the test compound was not administered or was administered. The activity assessment after obesity-induced aging was calculated as 100% and compared with the activity assessment after test compound treatment.

senescent A549 cells = test: Viability of senescent A549 cancer cells (CellTiter-Glo), Example 12; format: cell-based, human; conditions: Homo sapiens, A549, 0 μM = 100, read-out: Survival
Procedure: as §3
Cancer cells in which aging was induced by treatment with doxorubicin were treated with the test compound at designated concentrations and measured using the CellTiter-Glo Luminescent Cell Viability Assay (Promega).

senescent foreskin cells = test: Survival of senescent human cells treated with supernatant (secreted fluid) from death-induced cells, Example 13; format: cell-based; conditions: senescent treated cells; for viability at 30 µM: Homo sapiens, 72 h
senescent human cells = test: Viability of doxorubicin-induced senescent human cells (CellTiter-Glo), Example 11; format: cell-based
Procedure: Cells in which senescence was induced by treatment with doxorubicin were treated with the test compound at designated concentrations and measured using the CellTiter-Glo Luminescent Cell Viability Assay (Promega).

naturally aged mice [6] = test: Anti-aging evaluation in naturally aged mice, Example 31, Table 55; format: in vivo, mouse;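 also: Vehicle-dosed control mice received solution alone at matching volume, values compare test-compound-treated aged mice against that control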
Procedure: After the end of drug administration, the method described in each example below was performed. […] The mRNA amounts of p16, MMP3, and IL6 after natural aging was induced were calculated as 100% and compared with the mRNA amounts of p16, MMP3, and IL6 after treatment with the test compound. In addition, an open field test for the analysis of aging-related frailty, agtr1a mRNA analysis for kidney damage and disease evaluation, col1a1 and SDF1 mRNA analysis for skin aging evaluation such as wrinkles/loss of elasticity/hyperpigmentation, col2a1 mRNA analysis for evaluating joint aging such as osteoarthritis, sur2a mRNA analysis for evaluating cardiac aging such as decreased cardiac load resistance, ctsk mRNA analysis for evaluating bone diseases due to aging such as osteoporosis, muscle tissue weight for analyzing sarcopenia, fat tissue weight for analyzing lipoatrophy, and cataract incidence analysis were performed in mice. For cataract incidence analysis, the drug was administered twice a week under the conditions specified above, and biweekly examinations were conducted until death.

[7] = system: carbon tetrachloride-induced liver fibrosis mice; test: Carbon tetrachloride-induced liver fibrosis mice, Example 31, Table 57; format: in vivo, mouse; conditions: CCl4-induced liver fibrosis mice, untreated = 100%
Method in brief: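 Mice with induced hepatic fibrosis received either the test compound or, as controls, an equal volume of vehicle solution alone. Once dosing ended, liver tissue was harvested and total RNA was isolated. cDNA was synthesized from this RNA, and quantitative RT-PCR was run on it to measure hepatic mRNA levels of the fibrosis- and senescence-related genes.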

naturally aged mice [8] = test: p16, MMP3, IL6 mRNA in liver of naturally aged mice (qRT-PCR), Example 15; format: in vivo, mouse; conditions: untreated aged = 100%, 5 days
Procedure: (§2) In the same manner as in Example 7-1 of WO2023-085787 A1, naturally aged mice were administered LX-405 (5% DMSO in PBS solution, 10 mg/kg, intraperitoneal administration), LX-801 (PBS, 100 mg/kg, intraperitoneal administration), LX-1102 (0.5% CMC-Na solution, 100 mg/kg, oral administration), LX-1801 (PBS, 50 mg/kg, intraperitoneal administration), LX-2101 (0.5% CMC-Na solution, 10 mg/kg, intraperitoneal administration), and LX-3403 (mouse anti-PD-1 antibody (BioXcell), 100 μg, intraperitoneal administration) for 5 days under the following conditions. The control group was administered only the solution in the same volume. After drug administration was completed, the method described in each Example below was performed. The mouse was sacrificed in the same manner as Example 7-2 and 7-6 of WO2023-085787 A1. Total RNA was extracted from liver tissue, and qRT-PCR was performed and analyzed using synthesized cDNA. […] The mRNA amounts of p16, MMP3, and IL6 after natural aging were induced were calculated as 100% and compared them with the mRNA amounts of p16, MMP3, and IL6 after treatment with the test compound. Furthermore, an open field test was performed to analyze aging-related frailty in mice using the same method as Example 7-7 of WO2023-085787 A1. […] The amount of activity evaluated after inducing aging was calculated as 100% and compared it with the amount of activity evaluated after treatment with the test compound.

[9] = system: bleomycin-induced pulmonary fibrosis mice; test: Bleomycin-induced pulmonary fibrosis mice, Example 31, Table 56; format: in vivo, mouse; conditions: untreated = 100%
Method in brief: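 Mice with bleomycin-induced pulmonary fibrosis, untreated or given test compound, with vehicle-only controls. Lung tissue collected for RNA extraction and qRT-PCR analysis.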

naturally aged mice [10] = test: Open field test in naturally aged mice, Example 15; format: in vivo, mouse; conditions: untreated aged = 100%; 5 days; doses as p16 mRNA
Procedure: as §2

SAOS-2 = test: Suppression of doxorubicin-senescent SAOS-2 tumors in nude mice, Example 19; format: in vivo, mouse; conditions: after DOX 10 mg/kg ip; 21 days daily; LX-5701 360 mg/kg po, LX-2101 20 mg/kg ip, LX-2102 10 mg/kg ip; DOX repeated as control
Procedure: Seven-week-old male BALB/c nude mice (KRIBB Laboratory Animal Resource Center) were acclimated to the experimental environment for one week, after which they were randomly assigned to experimental and control groups. Evaluation was performed using the same method as in Example 2-1 of WO2023-085787 A1. Cultured human osteosarcoma cell lines, SAOS-2 (10^6 cells), were mixed in phosphate-buffered saline (PBS) and administered subcutaneously to anesthetized mice using 2% isoflurane (Sigma). When the tumors reached approximately […], doxorubicin (10 mg/kg) was mixed in a 1:1 solution of distilled water and PBS (pH 7.2) and administered intraperitoneally to induce tumor senescence. After 10 days, LX-5701 mixed in PBS at a concentration of 360 mg/kg was administered orally daily for 21 days, or LX-2101 mixed in PBS solution with 5% DMSO at a concentration of 20 mg/kg or LX-2102 mixed in PBS with 5% DMSO at a concentration of 10 mg/kg was administered intraperitoneally daily for 21 days, and then the tumor size was measured. The control group was repeatedly administered a solution mixed with doxorubicin, and then the tumor size was measured.

Splnocyte = conditions: cited from earlier work

## CC(C)c1onc(C(=O)N2CCN(C(c3ccccc3)c3ccccc3)CC2)c1[N+](=O)[O-] [LX-401]
[1]
  induced death of cells: induced the death of most cells
[2]; supernatant from death-induced proliferating cells
  viability at 30 µM: 88.1%
[2]; supernatant from death-induced senescent cells
  viability at 30 µM: 95.1%
[2]; supernatant from No Cells
  Survival: 97.9 (±7.2) %
[3]
  HMGN1: 277%
[4]
  amount of SASP, p16, SA-β-gal, lipofuscin: reduced
  symptoms of geriatric depression and anxiety: improved
[5]
  geriatric depression: similarly improving geriatric depression
Senescent A549 cells; 1.1 μM
  viability at 1.1 µM: 89.7%
Senescent A549 cells; 3.3 μM
  viability at […]: 68.6%
Senescent A549 cells; 10 μM
  viability at 10 µM: 42.1%
Senescent A549 cells; 30 μM
  viability at 30 µM: 16.8%
Senescent foreskin cells; supernatant from death-induced proliferating cells, 3 days
  viability at 30 µM: 48.2%
Senescent foreskin cells; supernatant from death-induced senescent cells, 3 days
  viability at 30 µM: 42.2%
Senescent foreskin cells; supernatant from No Cells, 3 days
  Survival: 101.1 (±5.5) %
Senescent human cells; Homo sapiens, 1.1 μM, 0 μM = 100, read-out: Survival
  viability at 1.1 µM: 20.4%
Senescent human cells; Homo sapiens, 3.3 μM, 0 μM = 100, read-out: Survival
  viability at […]: 12.4%
Senescent human cells; Homo sapiens, 10 μM, 0 μM = 100, read-out: Survival
  viability at 10 µM: 10.6%
Senescent human cells; Homo sapiens, 30 μM, 0 μM = 100, read-out: Survival
  viability at 30 µM: 7.8%
Senescent human cells; senescent foreskin cells, 30 μM, 3 days
  induced death of cells: induced the death of most cells

## Fc1ccc(-n2cc(CCCCN3CCC4(CC3)OCc3ccccc34)c3ccccc32)cc1 [LX-1102, Siramesine]
[3]
  HMGN1: 324%
Naturally aged mice [6]; femur, untreated = 100%
  Femur Ctsk mRNA: 62%
Naturally aged mice [6]; heart, untreated = 1.0
  Heart Sur2a mRNA: 1.8 fold
Naturally aged mice [6]; joint, untreated = 1.0
  Joint Col2a1 mRNA: 1.7 fold
Naturally aged mice [6]; kidney, untreated = 100%
  Kidney Agtr1a mRNA: 80%
Naturally aged mice [6]; liver, untreated = 100%
  Liver IL6 mRNA: 74%
  Liver MMP3 mRNA: 71%
  Liver p16 mRNA: 58%
Naturally aged mice [6]; open field test, untreated = 100%
  Open Field Test Time in Center: 148%
Naturally aged mice [6]; skin, untreated = 1.0
  Skin Col1a1 mRNA: 2.5 Fold
  Skin SDF1 mRNA: 2.3 fold
Naturally aged mice [6]; untreated 0.64 g
  Muscle Mass: 0.65 g
Naturally aged mice [6]; untreated 0.82 g
  Fat Mass: 0.95 g
Naturally aged mice [6]; untreated 83%
  Cataract incidence: 77%
Senescent foreskin cells; Table 8, supernatant from dying senescent cells treated at 30, 90 or 270 μM (as Example 11)
  Survival: 52.9
[7]; liver
  Liver p16 mRNA: 76 (±2.8) %
[7]
  Col1a1 mRNA: 64 (±4.7) %
Naturally aged mice [8]; LX-405 10 mg/kg ip, LX-801 100 mg/kg ip, LX-1102 100 mg/kg po, LX-1801 50 mg/kg ip, LX-2101 10 mg/kg ip, LX-3403 100 μg ip
  p16 mRNA: 75.2 (±5.5) %
Naturally aged mice [8]; doses as p16 mRNA
  IL6 mRNA: 84.5 (±8.9) %
  MMP3 mRNA: 89.7 (±12.5) %
[9]; lung
  Lung p16 mRNA: 59 (±3.9) %
[9]
  Col1a1 mRNA: 68 (±4.1) %
Naturally aged mice [10]
  Open Field Test Time in Center: 163 (±7.9) %

## COc1cccc2c1C(=O)c1c(O)c3c(c(O)c1C2=O)C[C@@](O)(C(=O)CO)C[C@@H]3O[C@H]1C[C@H](N)[C@H](O)[C@H](C)O1 [DOX, doxorubicin]
SAOS-2
  Tumor Diameter: 16.1 (±0.9) mm

## CC(O)[C@@H]1NC(=O)COCCOCCNC(=O)[C@H](C(C)O)NC(=O)N[C@@H](C(C)O)C(=O)NNC1=O (stereo partly drawn) [Cyclic compound 1]
Splnocyte
  Splnocyte proliferation recovery: Splnocyte proliferation recovery 91%
